Our source for the IC50 values is patent publication US20140107109A1, “AMINO-DIHYDROTHIAZINE AND AMINO-DIOXIDO DIHYDROTHIAZINE COMPOUNDS AS BETA-SECRETASE ANTAGONISTS AND METHODS OF USE” (Amgen Inc., priority 2012, published 2014).

Where two headings read alike, the source gives them in different places. A value given as a limit tells only on which side of the number the result lay.

The target in one test is T1, Cathepsin D (Cat D) (Homo sapiens, UniProt P07339).
T1 construct: Recombinant Cat D was expressed in CHO cells; made in house; host or cells: CHO cells
As to the kind of experiment: In vitro enzymatic Cathepsin D (Cat D) FRET assay. The format is biochemical. Conditions: read-out: CatD IC50. In short, it runs like this:
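Recombinant Cat D expressed in CHO cells, used at 9 nM and pre-incubated one hour with serially diluted inhibitor in DMSO. Peptide substrate carries a fluorophore and quencher flanking the cleavage site; reaction stopped with Tris buffer raising pH to neutrality, then fluorescence read.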

In test [1] the target is Beta Secretase enzyme (BACE1) (Homo sapiens, UniProt P56817). Kind of test: In vitro enzymatic BACE FRET assay. Conditions: read-out: BACE1 FRET assay IC50. The format is biochemical. In short, it runs like this: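 BACE1 cleavage of a 50 nM fluorophore/quencher peptide FRET substrate ran for one hour in 0.05 M acetate pH 4.2, 10% DMSO, 100 uM genapol. Tris buffer raised pH to neutrality to stop the reaction before fluorescence was read (excitation 488 nm, […]).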

Test [2] concerns Aβ40 in conditioned medium of cells stably expressing Amyloid Precursor Protein (APP). Kind of test: In vitro BACE cell-based assay (HEK cell assay), Aβ40 sandwich ELISA. Conditions: Homo sapiens, HEK293. In short, it runs like this:
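APP-stably expressing cells (40K/well, grown 24 h in DMEM/10% FBS) were treated 24 h with compounds in 10-point dose response starting at 100 μM or 10 μM, 0.1% DMSO final. Secreted Aβ40 was measured by sandwich ELISA (pAb40 capture, biotinylated 6E10 detection, europium time-resolved fluorescence); IC50 from percent inhibition.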
On the technique in general: ELISA stands for enzyme-linked immunosorbent assay.

Sequence of Beta Secretase enzyme (BACE1) (P56817 46-501): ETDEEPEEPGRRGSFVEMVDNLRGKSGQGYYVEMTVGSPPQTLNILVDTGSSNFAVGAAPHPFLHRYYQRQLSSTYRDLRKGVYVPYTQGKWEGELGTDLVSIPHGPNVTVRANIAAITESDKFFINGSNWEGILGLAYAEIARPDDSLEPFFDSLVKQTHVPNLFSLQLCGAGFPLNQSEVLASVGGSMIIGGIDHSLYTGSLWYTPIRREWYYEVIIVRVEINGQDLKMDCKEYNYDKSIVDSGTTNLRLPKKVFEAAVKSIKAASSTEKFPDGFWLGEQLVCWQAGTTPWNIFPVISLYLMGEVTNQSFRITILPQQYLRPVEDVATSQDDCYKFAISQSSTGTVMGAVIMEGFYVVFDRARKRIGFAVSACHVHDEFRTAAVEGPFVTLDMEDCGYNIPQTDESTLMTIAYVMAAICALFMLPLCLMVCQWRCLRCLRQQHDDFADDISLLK
T1 sequence (P07339 65-412, species assumed): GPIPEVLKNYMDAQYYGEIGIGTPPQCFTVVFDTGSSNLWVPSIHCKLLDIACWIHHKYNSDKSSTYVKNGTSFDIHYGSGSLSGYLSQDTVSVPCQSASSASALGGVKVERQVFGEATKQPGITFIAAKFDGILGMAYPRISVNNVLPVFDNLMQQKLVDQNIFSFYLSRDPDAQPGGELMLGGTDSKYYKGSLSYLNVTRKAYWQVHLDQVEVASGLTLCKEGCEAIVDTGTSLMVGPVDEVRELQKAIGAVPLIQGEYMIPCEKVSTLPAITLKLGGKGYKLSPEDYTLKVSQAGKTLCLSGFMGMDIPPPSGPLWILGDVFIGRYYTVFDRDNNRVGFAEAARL

One may read the IC50 as the concentration at which inhibition is half-maximal. As to `COc1ccc(C(=O)Nc2ccc(F)c([C@]3(C)CS(=O)(=O)C(C)(C)C(N)=N3)c2)c(F)c1` [Example 354, N-(3-((3R)-5-amino-3,6,6-trimethyl-1,1-dioxido-3,6-dihydro-2H-1,4-thiazin-3-yl)-4-fluorophenyl)-2-fluoro-4-methoxybenzamide], the IC50 at Cathepsin D (Cat D) turned out to be 1330 µM; in test [1] (average IC50, enzyme assay), 0.0424 µM; in test [2] (average IC50, HEK cell assay), 0.0187 µM.
With `Cc1cc(C#N)cnc1C(=O)Nc1ccc(F)c([C@]2(C)CS(=O)(=O)C(C)(C)C(N)=N2)c1` [Example 355, N-(3-((3R)-5-amino-3,6,6-trimethyl-1,1-dioxido-3,6-dihydro-2H-1,4-thiazin-3-yl)-4-fluorophenyl)-5-cyano-3-methyl-2-pyridinecarboxamide], the IC50 on Cathepsin D (Cat D) stood at 283 µM; in test [1] (average IC50, enzyme assay) it was 0.0003 µM; in test [2] (average IC50, HEK cell assay), 0.0005 µM.
In the same order, the values of `CC1(C)C(N)=N[C@](C)(c2cc(NC(=O)c3ncc(C#N)cc3Cl)ccc2F)CS1(=O)=O` [Example 356, N-(3-((3R)-5-amino-3,6,6-trimethyl-1,1-dioxido-3,6-dihydro-2H-1,4-thiazin-3-yl)-4-fluorophenyl)-3-chloro-5-cyano-2-pyridinecarboxamide] are 710 µM, 0.00035 µM and 0.0012 µM.
For `COc1cnc(C(=O)Nc2ccc(F)c([C@]3(C)CS(=O)(=O)C(C)(C)C(N)=N3)c2)c(C)c1` [Example 357, N-(3-((3R)-5-amino-3,6,6-trimethyl-1,1-dioxido-3,6-dihydro-2H-1,4-thiazin-3-yl)-4-fluorophenyl)-5-methoxy-3-methyl-2-pyridinecarboxamide], the IC50 at Cathepsin D (Cat D) was 228 µM; in test [1] (average IC50, enzyme assay), 0.00283 µM; in test [2] (average IC50, HEK cell assay), 0.0025 µM.
Regarding `Cc1cc(OC(F)F)cnc1C(=O)Nc1cnc(F)c([C@]2(C)CS(=O)(=O)C3(CCC3)C(N)=N2)c1` [Example 358, N-(5-((7R)-9-amino-7-methyl-5,5-dioxido-5-thia-8-azaspiro[3.5]non-8-en-7-yl)-6-fluoro-3-pyridinyl)-5-(difluoromethoxy)-3-methyl-2-pyridinecarboxamide], the IC50 is 139 µM at Cathepsin D (Cat D); 0.00642 µM in test [1] (average IC50, enzyme assay); 0.0095 µM in test [2] (average IC50, HEK cell assay).
On the same counts, the results for `Cc1cc(Cl)cnc1C(=O)Nc1cnc(F)c([C@]2(C)CS(=O)(=O)C3(CCC3)C(N)=N2)c1` [Example 359, N-(5-((7R)-9-amino-7-methyl-5,5-dioxido-5-thia-8-azaspiro[3.5]non-8-en-7-yl)-6-fluoro-3-pyridinyl)-5-chloro-3-methyl-2-pyridinecarboxamide] are 105 µM, 0.0022 µM and 0.00521 µM.
With `Cc1cnc(C(=O)Nc2ccc(F)c([C@]3(CF)CS(=O)(=O)C(C)(C)C(N)=N3)c2)c(C)c1` [Example 360, N-(3-((3S)-5-amino-3-(fluoromethyl)-6,6-dimethyl-1,1-dioxido-3,6-dihydro-2H-1,4-thiazin-3-yl)-4-fluorophenyl)-3,5-dimethyl-2-pyridinecarboxamide], the 50% inhibitory concentration (IC50) at Cathepsin D (Cat D) was 636 µM; in test [1] (average IC50, enzyme assay), 0.00299 µM; in test [2] (average IC50, HEK cell assay), 0.0245 µM.
For the compound `CC1(C)C(N)=N[C@](CF)(c2cc(NC(=O)c3ccc(C(F)F)cn3)ccc2F)CS1(=O)=O` [Example 361, N-(3-((3S)-5-amino-3-(fluoromethyl)-6,6-dimethyl-1,1-dioxido-3,6-dihydro-2H-1,4-thiazin-3-yl)-4-fluorophenyl)-5-(difluoromethyl)-2-pyridinecarboxamide], the IC50 on Cathepsin D (Cat D) amounted to 437 µM; in test [1] (average IC50, enzyme assay), 0.0008 µM; in test [2] (average IC50, HEK cell assay), 0.0193 µM.
On the same counts, the results for `CC1(C)C(N)=N[C@](CF)(c2cc(NC(=O)c3ccc(OC(F)F)cn3)ccc2F)CS1(=O)=O` [Example 362, N-(3-((3S)-5-amino-3-(fluoromethyl)-6,6-dimethyl-1,1-dioxido-3,6-dihydro-2H-1,4-thiazin-3-yl)-4-fluorophenyl)-5-(difluoromethoxy)-2-pyridinecarboxamide] are 303 µM, 0.0003 µM and 0.0035 µM.
In the same order, the values of `CC1(C)C(N)=N[C@](CF)(c2cc(NC(=O)c3ccc(F)cn3)ccc2F)CS1(=O)=O` [Example 363, N-(3-((3S)-5-amino-3-(fluoromethyl)-6,6-dimethyl-1,1-dioxido-3,6-dihydro-2H-1,4-thiazin-3-yl)-4-fluorophenyl)-5-fluoro-2-pyridinecarboxamide] are more than 400 µM, 0.0017 µM and 0.0456 µM.
In the case of `CC1(C)C(N)=N[C@](CF)(c2cc(NC(=O)c3cnc(OCC(F)F)cn3)ccc2F)CS1(=O)=O` [Example 364, N-(3-((3S)-5-amino-3-(fluoromethyl)-6,6-dimethyl-1,1-dioxido-3,6-dihydro-2H-1,4-thiazin-3-yl)-4-fluorophenyl)-5-(2,2-difluoroethoxy)-2-pyrazinecarboxamide], the IC50 on Cathepsin D (Cat D) turned out to be 858 µM; in test [1] (average IC50, enzyme assay) it was 0.0005 µM; in test [2] (average IC50, HEK cell assay), 0.0214 µM.
On the same counts, the results for `CC1(C)C(N)=N[C@](CF)(c2cc(NC(=O)c3cnc(OCCF)cn3)ccc2F)CS1(=O)=O` [Example 365, N-(3-((3S)-5-amino-3-(fluoromethyl)-6,6-dimethyl-1,1-dioxido-3,6-dihydro-2H-1,4-thiazin-3-yl)-4-fluorophenyl)-5-(2-fluoroethoxy)-2-pyrazinecarboxamide] are more than 400 µM, 0.00097 µM and 0.0447 µM.
`Cc1cc(Cl)cnc1C(=O)Nc1ccc(F)c([C@]2(CF)CS(=O)(=O)C3(CCC3)C(N)=N2)c1` [Example 366, N-(3-((7S)-9-amino-7-(fluoromethyl)-5,5-dioxido-5-thia-8-azaspiro[3.5]non-8-en-7-yl)-4-fluorophenyl)-5-chloro-3-methyl-2-pyridinecarboxamide]: the IC50 at Cathepsin D (Cat D) turned out to be 241 µM; in test [1] (average IC50, enzyme assay), 0.00079 µM; in test [2] (average IC50, HEK cell assay), 0.0141 µM.
As to `Cc1c(C(=O)Nc2ccc(F)c([C@]3(CF)CS(=O)(=O)C4(CCC4)C(N)=N3)c2)nc2ccc(Cl)cn12` [Example 367, N-(3-((7S)-9-amino-7-(fluoromethyl)-5,5-dioxido-5-thia-8-azaspiro[3.5]non-8-en-7-yl)-4-fluorophenyl)-6-chloro-3-methylimidazo[1,2-a]pyridine-2-carboxamide], the IC50 at Cathepsin D (Cat D) is more than 400 µM; in test [1] (average IC50, enzyme assay), 0.00507 µM; in test [2] (average IC50, HEK cell assay), 0.0137 µM.
Take `Cc1cc(C#N)cnc1C(=O)Nc1ccc(F)c([C@]2(CF)CS(=O)(=O)C3(CCC3)C(N)=N2)c1` [Example 368, N-(3-((7S)-9-amino-7-(fluoromethyl)-5,5-dioxido-5-thia-8-azaspiro[3.5]non-8-en-7-yl)-4-fluorophenyl)-5-cyano-3-methyl-2-pyridinecarboxamide]: the IC50 on Cathepsin D (Cat D) was 222 µM; in test [1] (average IC50, enzyme assay) it was 0.00064 µM; in test [2] (average IC50, HEK cell assay), 0.0046 µM.
For `Cc1cc(C(F)F)cnc1C(=O)Nc1ccc(F)c([C@]2(CF)CS(=O)(=O)C3(CCC3)C(N)=N2)c1` [Example 369, N-(3-((7S)-9-amino-7-(fluoromethyl)-5,5-dioxido-5-thia-8-azaspiro[3.5]non-8-en-7-yl)-4-fluorophenyl)-5-(difluoromethyl)-3-methyl-2-pyridinecarboxamide], the IC50 on Cathepsin D (Cat D) was determined as 233 µM; in test [1], 0.0014 µM; in test [2] it was 0.0123 µM.
Take `COCc1cc(Cl)cnc1C(=O)Nc1ccc(F)c([C@]2(CF)CS(=O)(=O)C3(CCC3)C(N)=N2)c1` [Example 370, N-(3-((7S)-9-amino-7-(fluoromethyl)-5,5-dioxido-5-thia-8-azaspiro[3.5]non-8-en-7-yl)-4-fluorophenyl)-5-chloro-3-(methoxymethyl)-2-pyridinecarboxamide]: the half-inhibitory concentration (IC50) was more than 400 µM at Cathepsin D (Cat D), 0.00081 µM in test [1] and 0.0273 µM in test [2].
In the case of `Cc1cc(OCC2CC2)cnc1C(=O)Nc1ccc(F)c([C@]2(CF)CS(=O)(=O)C3(CCC3)C(N)=N2)c1` [Example 371, N-(3-((7S)-9-amino-7-(fluoromethyl)-5,5-dioxido-5-thia-8-azaspiro[3.5]non-8-en-7-yl)-4-fluorophenyl)-5-(cyclopropylmethoxy)-3-methyl-2-pyridinecarboxamide], the figures for the IC50 (on Cathepsin D (Cat D); in test [1]; in test [2]) were 391 µM, 0.00156 µM and 0.077 µM, respectively.
As for `N#Cc1cnc(C(=O)Nc2ccc(F)c([C@]3(CF)CS(=O)(=O)C4(CCC4)C(N)=N3)c2)c(Cl)c1` [Example 372, N-(3-((7S)-9-amino-7-(fluoromethyl)-5,5-dioxido-5-thia-8-azaspiro[3.5]non-8-en-7-yl)-4-fluorophenyl)-3-chloro-5-cyano-2-pyridinecarboxamide], the IC50 is 367 µM at Cathepsin D (Cat D), 0.00072 µM in test [1] and 0.0071 µM in test [2].
As to `COc1cnc(C(=O)Nc2ccc(F)c([C@]3(CF)CS(=O)(=O)C4(CCC4)C(N)=N3)c2)c(C)c1` [Example 373, N-(3-((7S)-9-amino-7-(fluoromethyl)-5,5-dioxido-5-thia-8-azaspiro[3.5]non-8-en-7-yl)-4-fluorophenyl)-5-methoxy-3-methyl-2-pyridinecarboxamide], the IC50 was found to be 197 µM on Cathepsin D (Cat D), 0.00245 µM in test [1] and 0.0148 µM in test [2].
